From patent US20090035313A1, “Compounds” (Pfizer Inc., priority 2003, published 2009)

Tested on: TNFα release from human peripheral blood mononuclear cells
Experiment: Inhibition of LPS-stimulated TNFα release from human peripheral blood mononuclear cells (TNFα screen, ELISA)
Type: cell-based
Details: LPS-stimulated human PBMC, 18 hours incubation, TNFα in supernatant by ELISA
Procedure: Venous blood is collected from healthy volunteers and the mononuclear cells purified by centrifugation through Histopaque (Ficoll) cushions. TNFα production from these cells is stimulated by addition of lipopolysaccharide. After 18 hours incubation in the presence of LPS, the cell supernatant is removed and the concentration of TNFα in the supernatant determined by ELISA.

IC50: 400 pM
SMILES: COc1ccc2cccnc2c1S(=O)(=O)N[C@H]1CC[C@@H](NC(=O)c2cccnc2OC2CCSCC2)CC1 [Example 29, Syn-N-[4-(7-methoxy-quinoline-8-sulfonylamino)-cyclohexyl]-2-(tetrahydro-thiopyran-4-yloxy)-nicotinamide]
